Our source for the FGFR1/FGFR4, FGFR2/FGFR4 and FGFR3/FGFR4 values is patent US9801889B2, “Bicyclic heterocycles as FGFR4 inhibitors” (Incyte Corporation, priority 2015, dated 2017).

Holding throughout (conditions): IC50 ratio showing FGFR4 selectivity
In one assay the target is FGFR1 (Homo sapiens (Human), UniProt P11362). The experiment in a line: FGFR Enzymatic Assay (FRET peptide phosphorylation), FGFR1.
A further assay deals with FGFR2 (Homo sapiens (Human), UniProt P21802). The assay is described as follows: FGFR Enzymatic Assay (FRET peptide phosphorylation), FGFR2.
In another assay the target is FGFR3 (Homo sapiens (Human), UniProt P22607). The assay is described as follows: FGFR Enzymatic Assay (FRET peptide phosphorylation), FGFR3.
Setting [1] is: pre-incubated for 5 to 10 minutes.

FGFR1, sequence (P11362 22-822): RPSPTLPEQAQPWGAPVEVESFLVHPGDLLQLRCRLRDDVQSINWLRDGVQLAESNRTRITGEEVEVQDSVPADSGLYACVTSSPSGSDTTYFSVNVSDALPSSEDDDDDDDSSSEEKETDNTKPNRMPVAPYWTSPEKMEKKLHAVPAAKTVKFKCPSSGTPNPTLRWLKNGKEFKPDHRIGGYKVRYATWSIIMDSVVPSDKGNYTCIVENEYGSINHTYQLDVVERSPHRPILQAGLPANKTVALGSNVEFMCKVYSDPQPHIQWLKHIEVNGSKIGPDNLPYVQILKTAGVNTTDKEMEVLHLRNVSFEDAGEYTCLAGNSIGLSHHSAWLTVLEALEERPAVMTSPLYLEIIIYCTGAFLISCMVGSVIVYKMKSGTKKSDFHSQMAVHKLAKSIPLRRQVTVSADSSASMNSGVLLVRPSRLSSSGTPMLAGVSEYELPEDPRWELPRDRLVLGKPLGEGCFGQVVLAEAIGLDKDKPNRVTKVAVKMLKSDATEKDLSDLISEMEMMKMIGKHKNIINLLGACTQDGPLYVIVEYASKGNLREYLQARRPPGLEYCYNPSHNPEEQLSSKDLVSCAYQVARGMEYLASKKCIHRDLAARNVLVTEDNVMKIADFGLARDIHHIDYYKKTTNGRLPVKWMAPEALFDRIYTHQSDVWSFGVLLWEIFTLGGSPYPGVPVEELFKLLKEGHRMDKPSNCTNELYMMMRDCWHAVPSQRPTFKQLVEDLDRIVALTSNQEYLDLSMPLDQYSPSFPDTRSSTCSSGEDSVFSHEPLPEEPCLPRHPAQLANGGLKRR
FGFR2, sequence (P21802 22-821): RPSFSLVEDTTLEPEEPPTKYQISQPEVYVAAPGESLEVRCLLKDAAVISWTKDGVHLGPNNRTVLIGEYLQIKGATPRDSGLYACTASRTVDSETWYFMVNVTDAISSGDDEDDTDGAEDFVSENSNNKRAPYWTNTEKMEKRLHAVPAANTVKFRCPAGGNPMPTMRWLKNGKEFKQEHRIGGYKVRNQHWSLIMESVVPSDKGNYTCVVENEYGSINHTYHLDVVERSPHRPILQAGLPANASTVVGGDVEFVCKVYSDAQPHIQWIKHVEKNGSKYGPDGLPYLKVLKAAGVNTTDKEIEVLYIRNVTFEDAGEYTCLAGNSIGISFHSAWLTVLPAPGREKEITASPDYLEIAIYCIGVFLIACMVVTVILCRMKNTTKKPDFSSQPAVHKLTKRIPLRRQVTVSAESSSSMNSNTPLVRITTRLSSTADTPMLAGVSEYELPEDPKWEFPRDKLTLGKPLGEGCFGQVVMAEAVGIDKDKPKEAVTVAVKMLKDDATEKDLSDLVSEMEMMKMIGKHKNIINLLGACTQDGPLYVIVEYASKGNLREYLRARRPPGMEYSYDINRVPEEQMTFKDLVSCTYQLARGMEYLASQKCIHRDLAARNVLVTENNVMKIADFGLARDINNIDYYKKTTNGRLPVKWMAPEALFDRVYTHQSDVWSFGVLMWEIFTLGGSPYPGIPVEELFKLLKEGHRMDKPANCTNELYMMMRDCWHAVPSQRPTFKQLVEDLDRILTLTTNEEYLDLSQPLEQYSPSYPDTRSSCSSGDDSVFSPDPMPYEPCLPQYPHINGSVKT
FGFR3, sequence (P22607 23-806): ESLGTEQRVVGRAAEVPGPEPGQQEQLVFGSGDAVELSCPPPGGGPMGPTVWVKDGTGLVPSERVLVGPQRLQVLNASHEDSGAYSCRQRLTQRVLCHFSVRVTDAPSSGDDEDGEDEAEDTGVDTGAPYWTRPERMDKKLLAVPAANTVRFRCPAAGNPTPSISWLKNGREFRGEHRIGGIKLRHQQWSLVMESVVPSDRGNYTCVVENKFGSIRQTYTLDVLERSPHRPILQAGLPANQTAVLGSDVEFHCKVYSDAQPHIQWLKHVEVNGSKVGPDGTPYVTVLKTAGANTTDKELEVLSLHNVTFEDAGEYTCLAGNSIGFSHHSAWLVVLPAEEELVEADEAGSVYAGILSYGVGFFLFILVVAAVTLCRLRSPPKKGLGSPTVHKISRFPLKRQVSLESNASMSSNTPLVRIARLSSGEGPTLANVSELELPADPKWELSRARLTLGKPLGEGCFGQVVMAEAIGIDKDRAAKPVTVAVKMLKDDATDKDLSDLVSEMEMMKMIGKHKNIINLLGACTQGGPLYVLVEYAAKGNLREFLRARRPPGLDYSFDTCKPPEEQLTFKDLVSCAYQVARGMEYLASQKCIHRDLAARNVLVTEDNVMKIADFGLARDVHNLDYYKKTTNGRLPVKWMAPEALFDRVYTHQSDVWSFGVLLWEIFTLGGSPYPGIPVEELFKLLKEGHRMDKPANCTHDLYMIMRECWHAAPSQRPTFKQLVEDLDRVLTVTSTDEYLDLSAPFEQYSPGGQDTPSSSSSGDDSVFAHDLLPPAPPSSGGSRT
Source text for FGFR1: (§1) The enzymes were purchased from Millipore or Invitrogen.
(§2) GraphPad prism3 was used to analyze the data. The IC50 values were derived by fitting the data to the equation for a sigmoidal dose-response with a variable slope. Y=Bottom+(Top-Bottom)/(1+10^((LogIC50-X)*HillSlope)) where X is the logarithm of concentration and Y is the response.
Source text for FGFR2: as §1, §2
Source text for FGFR3: as §1, §2

Take `C=CC(=O)Nc1cnn(Cc2cnn(C)c2)c1-c1cc2c(cn1)CN(c1c(F)c(OC)cc(OC)c1F)C(=O)C21CC1` [Example 27, N-(5-(2′-(2,6-difluoro-3,5-dimethoxyphenyl)-3′-oxo-2′,3′-dihydro-1′H-spiro[cyclopropane-1,4′-[2,7]naphthyridine]-6′-yl)-1-((1-methyl-1H-pyrazol-4-yl)methyl)-1H-pyrazol-4-yl)acrylamide]: at FGFR1 (pre-incubated for 4 hours), the FGFR1/FGFR4 is >100. The FGFR2/FGFR4 on FGFR2 (pre-incubated for 4 hours) is reported as >100. Further, the FGFR3/FGFR4 at FGFR3 (pre-incubated for 4 hours) was >100.

Take `C=CC(=O)Nc1ccc(C#N)c(-c2cc3c(cn2)CN(c2c(F)c(OC)cc(OC)c2F)C(=O)C32CC2)c1` [Example 5, N-(4-cyano-3-(2′-(2,6-difluoro-3,5-dimethoxyphenyl)-3′-oxo-2′,3′-dihydro-1′H-spiro[cyclopropane-1,4′-[2,7]naphthyridine]-6′-yl)phenyl)acrylamide]: the FGFR1/FGFR4 on FGFR1 (setting [1]) and on FGFR1 (pre-incubated for 4 hours) was >100 each time. In addition, the FGFR2/FGFR4 on FGFR2 (setting [1]) and at FGFR2 (pre-incubated for 4 hours) was >100 in each case. In addition, the FGFR3/FGFR4 at FGFR3 (setting [1]) and at FGFR3 (pre-incubated for 4 hours) was >100 throughout.

Regarding `C=CC(=O)Nc1cn(CC(=O)N(C)C)nc1-c1cc2c(cn1)CN(c1c(F)c(OC)cc(OC)c1F)C(=O)C21CC1` [Example 36, N-(3-(2′-(2,6-difluoro-3,5-dimethoxyphenyl)-3′-oxo-2′,3′-dihydro-1′H-spiro[cyclopropane-1,4′-[2,7]naphthyridine]-6′-yl)-1-(2-(dimethylamino)-2-oxoethyl)-1H-pyrazol-4-yl)acrylamide], the FGFR1/FGFR4 at FGFR1 (pre-incubated for 4 hours) is recorded as >100. At FGFR2 (pre-incubated for 4 hours), the FGFR2/FGFR4 is reported as >100. Also, on FGFR3 (pre-incubated for 4 hours), the FGFR3/FGFR4 is listed as >100.

Consider `C=CC(=O)Nc1ccc(C)c(-c2cc3c(cn2)CN(c2c(F)c(OC)cc(OC)c2F)C(=O)C32CC2)c1` [Example 2, N-(3-(2′-(2,6-difluoro-3,5-dimethoxyphenyl)-3′-oxo-2′,3′-dihydro-1′H-spiro[cyclopropane-1,4′-[2,7]naphthyridine]-6′-yl)-4-methylphenyl)acrylamide], for which the FGFR1/FGFR4 on FGFR1 (setting [1]) and at FGFR1 (pre-incubated for 4 hours) was >100 each time. Further, the FGFR2/FGFR4 at FGFR2 (setting [1]) and on FGFR2 (pre-incubated for 4 hours) was >100 throughout. The FGFR3/FGFR4 on FGFR3 (setting [1]) and on FGFR3 (pre-incubated for 4 hours) was >100 throughout.

In the case of `C=CC(=O)Nc1cnn(CCN2CCOCC2)c1-c1cc2c(cn1)CN(c1c(F)c(OC)cc(OC)c1F)C(=O)C21CC1` [Example 19, N-(5-(2′-(2,6-difluoro-3,5-dimethoxyphenyl)-3′-oxo-2′,3′-dihydro-1′H-spiro[cyclopropane-1,4′-[2,7]naphthyridine]-6′-yl)-1-(2-morpholinoethyl)-1H-pyrazol-4-yl)acrylamide], the FGFR1/FGFR4 on FGFR1 (pre-incubated for 4 hours) was >100. Besides, the FGFR2/FGFR4 at FGFR2 (pre-incubated for 4 hours) is >100. Further, the FGFR3/FGFR4 on FGFR3 (pre-incubated for 4 hours) was >100.

For `C=CC(=O)Nc1cn[nH]c1-c1cc2c(cn1)CN(c1c(F)c(OC)cc(OC)c1F)C(=O)C21CC1` [Example 14, N-(5-(2′-(2,6-difluoro-3,5-dimethoxyphenyl)-3′-oxo-2′,3′-dihydro-1′H-spiro[cyclopropane-1,4′-[2,7]naphthyridine]-6′-yl)-1H-pyrazol-4-yl)acrylamide], on FGFR1 (pre-incubated for 4 hours), the FGFR1/FGFR4 is listed as >100. For the same molecule, the FGFR2/FGFR4 on FGFR2 (pre-incubated for 4 hours) is >100. Further, the FGFR3/FGFR4 at FGFR3 (pre-incubated for 4 hours) is >100.

As to `C=CC(=O)Nc1cc(-c2cc3c(cn2)CN(c2c(F)c(OC)cc(OC)c2F)C(=O)C32CC2)cc(N2CCOCC2)c1` [Example 10, N-{3-[2′-(2,6-difluoro-3,5-dimethoxyphenyl)-3′-oxo-2′,3′-dihydro-1′H-spiro[cyclopropane-1,4′-[2,7]naphthyridin]-6′-yl]-5-morpholin-4-ylphenyl}acrylamide], the FGFR1/FGFR4 at FGFR1 (setting [1]) and on FGFR1 (pre-incubated for 4 hours) was >100 in each case. Besides, the FGFR2/FGFR4 at FGFR2 (setting [1]) and at FGFR2 (pre-incubated for 4 hours) was >100 throughout. The FGFR3/FGFR4 at FGFR3 (setting [1]) and at FGFR3 (pre-incubated for 4 hours) was >100 each time.

Take `C=CC(=O)Nc1cnn(CC2CCOCC2)c1-c1cc2c(cn1)CN(c1c(F)c(OC)cc(OC)c1F)C(=O)C21CC1` [Example 24, N-(5-(2′-(2,6-difluoro-3,5-dimethoxyphenyl)-3′-oxo-2′,3′-dihydro-1′H-spiro[cyclopropane-1,4′-[2,7]naphthyridine]-6′-yl)-1-((tetrahydro-2H-pyran-4-yl)methyl)-1H-pyrazol-4-yl)acrylamide]: on FGFR1 (pre-incubated for 4 hours), the FGFR1/FGFR4 is reported as >100. The FGFR2/FGFR4 on FGFR2 (pre-incubated for 4 hours) is reported as >100. Moreover, the FGFR3/FGFR4 at FGFR3 (pre-incubated for 4 hours) is recorded as >100.

With `C=CC(=O)N1CCCC(c2cc3c(cn2)CN(c2c(F)c(OC)cc(OC)c2F)C(=O)C32CC2)C1` (stereo not drawn) [Example 8, 6′-(1-acryloylpiperidin-3-yl)-2′-(2,6-difluoro-3,5-dimethoxyphenyl)-1′H-spiro[cyclopropane-1,4′-[2,7]naphthyridin]-3′(2′H)-one], the FGFR1/FGFR4 on FGFR1 (setting [1]) is on record as >5; on FGFR1 (pre-incubated for 4 hours), >10. Also, the FGFR2/FGFR4 at FGFR2 (setting [1]) is recorded as >1; at FGFR2 (pre-incubated for 4 hours), >2. Besides, the FGFR3/FGFR4 is recorded as >1 at FGFR3 (setting [1]) and >2 on FGFR3 (pre-incubated for 4 hours).

Turning to `C=CC(=O)Nc1cnn(Cc2ccon2)c1-c1cc2c(cn1)CN(c1c(F)c(OC)cc(OC)c1F)C(=O)C21CC1` [Example 25, N-(5-(2′-(2,6-difluoro-3,5-dimethoxyphenyl)-3′-oxo-2′,3′-dihydro-1′H-spiro[cyclopropane-1,4′-[2,7]naphthyridine]-6′-yl)-1-(isoxazol-3-ylmethyl)-1H-pyrazol-4-yl)acrylamide], on FGFR1 (pre-incubated for 4 hours), the FGFR1/FGFR4 was >100. On FGFR2 (pre-incubated for 4 hours), the FGFR2/FGFR4 was >100. Also, at FGFR3 (pre-incubated for 4 hours), the FGFR3/FGFR4 is given as >100.

`C=CC(=O)Nc1cnn(CCOCC)c1-c1cc2c(cn1)CN(c1c(F)c(OC)cc(OC)c1F)C(=O)C21CC1` [Example 16, N-(5-(2′-(2,6-difluoro-3,5-dimethoxyphenyl)-3′-oxo-2′,3′-dihydro-1′H-spiro[cyclopropane-1,4′-[2,7]naphthyridine]-6′-yl)-1-(2-ethoxyethyl)-1H-pyrazol-4-yl)acrylamide]: the FGFR1/FGFR4 at FGFR1 (pre-incubated for 4 hours) was >100. Also, the FGFR2/FGFR4 at FGFR2 (pre-incubated for 4 hours) is on record as >100. The FGFR3/FGFR4 at FGFR3 (pre-incubated for 4 hours) was >100.

Consider `C=CC(=O)Nc1cnn(C[C@@H]2CCOC2)c1-c1cc2c(cn1)CN(c1c(F)c(OC)cc(OC)c1F)C(=O)C21CC1` [Example 28, (S)-N-(5-(2′-(2,6-difluoro-3,5-dimethoxyphenyl)-3′-oxo-2′,3′-dihydro-1′H-spiro[cyclopropane-1,4′-[2,7]naphthyridine]-6′-yl)-1-((tetrahydrofuran-3-yl)methyl)-1H-pyrazol-4-yl)acrylamide], for which, on FGFR1 (pre-incubated for 4 hours), the FGFR1/FGFR4 is given as >100. On FGFR2 (pre-incubated for 4 hours), the FGFR2/FGFR4 is given as >100. Besides, the FGFR3/FGFR4 on FGFR3 (pre-incubated for 4 hours) is reported as >100.

In the case of `C=CC(=O)Nc1cc(CN2CCOCC2)cc(-c2cc3c(cn2)CN(c2c(F)c(OC)cc(OC)c2F)C(=O)C32CC2)c1` [Example 11, N-[3-[2′-(2,6-difluoro-3,5-dimethoxyphenyl)-3′-oxo-2′,3′-dihydro-1′H-spiro[cyclopropane-1,4′-[2,7]naphthyridin]-6′-yl]-5-(morpholin-4-ylmethyl)phenyl]acrylamide], the FGFR1/FGFR4 at FGFR1 (setting [1]) and on FGFR1 (pre-incubated for 4 hours) was >100 throughout. In addition, the FGFR2/FGFR4 at FGFR2 (setting [1]) and at FGFR2 (pre-incubated for 4 hours) was >100 in each case. Further, the FGFR3/FGFR4 at FGFR3 (setting [1]) and at FGFR3 (pre-incubated for 4 hours) was >100 in each case.

In the case of `C=CC(=O)Nc1cnn(C2CCOCC2)c1-c1cc2c(cn1)CN(c1c(F)c(OC)cc(OC)c1F)C(=O)C21CC1` [Example 18, N-(5-(2′-(2,6-difluoro-3,5-dimethoxyphenyl)-3′-oxo-2′,3′-dihydro-1′H-spiro[cyclopropane-1,4′-[2,7]naphthyridine]-6′-yl)-1-(tetrahydro-2H-pyran-4-yl)-1H-pyrazol-4-yl)acrylamide], on FGFR1 (pre-incubated for 4 hours), the FGFR1/FGFR4 is recorded as >100. The FGFR2/FGFR4 at FGFR2 (pre-incubated for 4 hours) is recorded as >50. Also, on FGFR3 (pre-incubated for 4 hours), the FGFR3/FGFR4 was >100.

`C=CC(=O)Nc1cnn(Cc2cccnc2)c1-c1cc2c(cn1)CN(c1c(F)c(OC)cc(OC)c1F)C(=O)C21CC1` [Example 22, N-(5-(2′-(2,6-difluoro-3,5-dimethoxyphenyl)-3′-oxo-2′,3′-dihydro-1′H-spiro[cyclopropane-1,4′-[2,7]naphthyridine]-6′-yl)-1-(pyridin-3-ylmethyl)-1H-pyrazol-4-yl)acrylamide]: on FGFR1 (pre-incubated for 4 hours), the FGFR1/FGFR4 is >100. On FGFR2 (pre-incubated for 4 hours), the FGFR2/FGFR4 is on record as >100. In addition, the FGFR3/FGFR4 at FGFR3 (pre-incubated for 4 hours) was >100.

On to `C=CC(=O)Nc1cnn(Cc2ccncc2)c1-c1cc2c(cn1)CN(c1c(F)c(OC)cc(OC)c1F)C(=O)C21CC1` [Example 21, N-(5-(2′-(2,6-difluoro-3,5-dimethoxyphenyl)-3′-oxo-2′,3′-dihydro-1′H-spiro[cyclopropane-1,4′-[2,7]naphthyridine]-6′-yl)-1-(pyridin-4-ylmethyl)-1H-pyrazol-4-yl)acrylamide], for which the FGFR1/FGFR4 at FGFR1 (pre-incubated for 4 hours) is >100. The FGFR2/FGFR4 at FGFR2 (pre-incubated for 4 hours) is recorded as >50. The FGFR3/FGFR4 on FGFR3 (pre-incubated for 4 hours) is >100.

Consider `C=CC(=O)Nc1cc(-c2cc3c(cn2)CN(c2c(F)c(OC)cc(OC)c2F)C(=O)C32CC2)ccc1CN1CCOCC1` [Example 12, N-(5-(2′-(2,6-difluoro-3,5-dimethoxyphenyl)-3′-oxo-2′,3′-dihydro-1′H-spiro[cyclopropane-1,4′-[2,7]naphthyridine]-6′-yl)-2-(morpholinomethyl)phenyl)acrylamide], for which the FGFR1/FGFR4 is listed as >10 at FGFR1 (setting [1]) and >100 on FGFR1 (pre-incubated for 4 hours). Besides, the values for the FGFR2/FGFR4 at FGFR2 (setting [1]) and on FGFR2 (pre-incubated for 4 hours) were >1 and >25, respectively. For the same molecule, the FGFR3/FGFR4 is on record as >1 on FGFR3 (setting [1]) and >10 at FGFR3 (pre-incubated for 4 hours).
